In EPA's ToxValDB 9.5 (doi:10.2903/j.efsa.2014.3815):

What was measured:
Apis mellifera = conditions: acute; duration: 48 hours; dermal; mortality
Canidae = conditions: subchronic; duration: 90 days; oral; Dog Other; histopathology: nonneoplastic
Cyprinus carpio = conditions: acute; duration: 96 hours; mortality
Daphnia magna = conditions: chronic/long-term; duration: 21 days; reproduction
Landoltia sp. = conditions: acute; duration: 14 days; frond number
Lepomis macrochirus = conditions: acute; duration: 96 hours; mortality
Macromiidae = conditions: acute; duration: 72 hours; biomass
Oryctolagus sp. = conditions: developmental; development
Pimephales promelas = conditions: chronic/long-term; duration: 37 days; growth
Pleurozium sp. = conditions: chronic/long-term; duration: 120 hours; growth
Rattus norvegicus = conditions: for LD50: acute, mortality
Tagia sp. = conditions: acute; duration: 14 days; mortality
Poecilus cupreus = assay: LR50; higher = less toxic; conditions: acute; mortality

`COc1nc(C)nc(NC(=O)NS(=O)(=O)c2ccccc2CCC(F)(F)F)n1` [Prosulfuron] gave an LD50 (Anas platyrhynchos; acute, oral, unspecified, mortality) of 1300 mg/kg, an NOEL (Anas platyrhynchos; reproductive) of 2.95 mg/kg-day and an LD50 (Apis mellifera) of over 100 µg/piece. The NOAEL (Canidae) was 6 mg/kg-day, the LC50 (Cyprinus carpio) was over 100 mg/L and the NOEC (Daphnia magna) was 148 mg/L. For the same compound, the NOEC (Landoltia sp.) was 0.000827 mg/L, the LC50 (Lepomis macrochirus) was over 100 mg/L and the NOEC (Macromiidae) was 0.831 mg/L. It also gave an LC50 (Oncorhynchus mykiss; acute, duration: 96 hours, mortality) of over 160 mg/L, an NOEC (Oncorhynchus mykiss; chronic/long-term, duration: 21 days, growth) of 5.8 mg/L and an NOAEL (Oryctolagus sp.) of 10 mg/kg-day. For the same compound, the NOEC (Pimephales promelas) was 150 mg/L, the NOEC (Pleurozium sp.) was 0.00278 mg/L and the LD50 (Rattus norvegicus; M/F) was 986 mg/kg. The LD50 (Rattus norvegicus) was over 755 mg/kg, the NOAEL (Rattus norvegicus; chronic) was 12 mg/kg-day and the NOAEL (Rattus norvegicus; chronic, duration: 18 months, histopathology: nonneoplastic) was 1.7 mg/kg-day. It also gave an NOAEL (Rattus norvegicus; subchronic, duration: 90 days) of 3 mg/kg-day, an LC50 (Tagia sp.) of over 1000 mg/kg and an LR50 (Poecilus cupreus) of over 15 g/ha.
